Test [1] relates to Staphylococcus aureus. The experiment in a line: Antimicrobial activity against Staphylococcus aureus Sau 1862 assessed as inhibition of bacterial growth incubated for 16 to 18 hrs by broth micro dilution technique. Format: functional. Conditions: time 16-18 hrs.
Test [2] has as its system Staphylococcus aureus. The experiment in a line: Antimicrobial activity against Staphylococcus aureus CCAM 3090 assessed as inhibition of bacterial growth incubated for 16 to 18 hrs by broth micro dilution technique. Format: functional. The following applies: time 16-18 hrs.
A further test concerns Enterococcus faecalis. The experiment in a line: Antimicrobial activity against Enterococcus faecalis ATCC 29212 assessed as inhibition of bacterial growth incubated for 16 to 18 hrs by broth micro dilution technique. Format: functional. Conditions: time 16-18 hrs.
Test [3] deals with Staphylococcus aureus. Put plainly: Antimicrobial activity against Staphylococcus aureus Sau 745524 assessed as inhibition of bacterial growth incubated for 16 to 18 hrs by broth micro dilution technique. Format: functional. The following applies: time 16-18 hrs.
The test system of test [4] is Staphylococcus aureus. The experiment in a line: Antimicrobial activity against Staphylococcus aureus Sau 991 assessed as inhibition of bacterial growth incubated for 16 to 18 hrs by broth micro dilution technique. The following applies: time 16-18 hrs. Format: functional.
The test system of test [5] is Staphylococcus aureus. The experiment in a line: Antimicrobial activity against Staphylococcus aureus Sau 718306 assessed as inhibition of bacterial growth incubated for 16 to 18 hrs by broth micro dilution technique. Format: functional. Conditions: time 16-18 hrs.
Test [6] concerns Staphylococcus aureus. The experiment in a line: Antimicrobial activity against Staphylococcus aureus Sau 6917 assessed as inhibition of bacterial growth incubated for 16 to 18 hrs by broth micro dilution technique. Format: functional. Conditions: time 16-18 hrs.
Test [7] relates to Staphylococcus aureus. Put plainly: Antimicrobial activity against Staphylococcus aureus Sau 16162 assessed as inhibition of bacterial growth incubated for 16 to 18 hrs by broth micro dilution technique. The following applies: time 16-18 hrs. In kind it is functional.
Test [8] relates to Staphylococcus aureus. Put plainly: Antimicrobial activity against Staphylococcus aureus ATCC 29213 assessed as inhibition of bacterial growth incubated for 16 to 18 hrs by broth micro dilution technique. Format: functional. Conditions: time 16-18 hrs.
For a further test, the system named is Micrococcus luteus. Put plainly: Antimicrobial activity against Micrococcus luteus ML01 assessed as inhibition of bacterial growth incubated for 16 to 18 hrs by broth micro dilution technique. Format: functional. The following applies: time 16-18 hrs.
For the next test, the system named is Bacillus thuringiensis. Put plainly: Antimicrobial activity against Bacillus thuringiensis BT01 assessed as inhibition of bacterial growth incubated for 16 to 18 hrs by broth micro dilution technique. Format: functional. The following applies: time 16-18 hrs.
For another test, the system named is Enterococcus faecium. The experiment in a line: Antimicrobial activity against Enterococcus faecium ATCC 35682 assessed as inhibition of bacterial growth incubated for 16 to 18 hrs by broth micro dilution technique. Format: functional. The following applies: time 16-18 hrs.
The next test has as its system Candida albicans. Put plainly: Antimicrobial activity against Candida albicans assessed as inhibition of bacterial growth incubated for 16 to 18 hrs by broth micro dilution technique. Format: functional. Conditions: time 16-18 hrs.
The subject of the next test is RKO. Put plainly: Cytotoxicity against human RKO cells assessed as growth inhibition incubated for 68 hrs by MTT assay. In kind it is functional, cell-based. (Tetrazolium assays rely on reduction of a dye to a coloured formazan, in cell work by metabolically active cells.)
Another test deals with A549. The experiment in a line: Cytotoxicity against human A549 cells assessed as growth inhibition incubated for 68 hrs by MTT assay. In kind it is functional, cell-based. The following applies: A549, 68 h.
Another test relates to HL-60. Put plainly: Cytotoxicity against human HL-60 cells assessed as growth inhibition incubated for 68 hrs by MTT assay. Format: functional, cell-based. Conditions: HL-60, 68 h.
For another test, the system named is BEAS-2B. The experiment in a line: Cytotoxicity against human BEAS-2B cells assessed as growth inhibition incubated for 68 hrs by MTT assay. In kind it is cell-based.
Another test deals with MCF7. Put plainly: Cytotoxicity against human MCF7 cells assessed as growth inhibition incubated for 68 hrs by MTT assay. Format: functional, cell-based. Conditions: MCF7, 68 h.
The next test deals with L02. The experiment in a line: Cytotoxicity against human L02 cells assessed as growth inhibition incubated for 68 hrs by MTT assay. In kind it is cell-based. The following applies: L02, 68 h.
A further test has as its system HeLa. The experiment in a line: Cytotoxicity against human HeLa cells assessed as growth inhibition incubated for 68 hrs by MTT assay. In kind it is functional, cell-based.
The next test concerns HepG2. Put plainly: Cytotoxicity against human HepG2 cells assessed as growth inhibition incubated for 68 hrs by MTT assay. Format: functional, cell-based. The following applies: HepG2, 68 h.

pIC50: −log10 of the molar value. Values after ≈ are worked out from the molar mass of the structure shown.

As usually defined, the MIC is the lowest concentration found to suppress growth. For `CC(C)[C@H]1C(=O)O[C@H](C)[C@H](NC(=O)c2c3nc4c(C(=O)N[C@@H]5C(=O)N[C@H](C(C)C)C(=O)N6CCC[C@H]6C(=O)N(C)CC(=O)N(C)[C@@H](C(C)C)C(=O)O[C@@H]5C)cccc4oc-3c(Cl)c(=O)c2N)C(=O)N[C@H](C(C)C)C(=O)N2CCC[C@H]2C(=O)N(C)CC(=O)N1C`, the MIC with Staphylococcus aureus [1] turned out to be 8 µg/mL (≈ 6.34 µM); in the test with Staphylococcus aureus [2] it was 16 µg/mL (≈ 12.7 µM); in the test on Enterococcus faecalis, 16 µg/mL (≈ 12.7 µM); in the test on Staphylococcus aureus [3], 8 µg/mL (≈ 6.34 µM); with Staphylococcus aureus [4], 8 µg/mL (≈ 6.34 µM); in the test with Staphylococcus aureus [5], 8 µg/mL (≈ 6.34 µM). In addition, the minimal inhibitory concentration (MIC) was determined as 16 µg/mL (≈ 12.7 µM) in the test with Staphylococcus aureus [6]; 32 µg/mL (≈ 25.4 µM) with Staphylococcus aureus [7]; 16 µg/mL (≈ 12.7 µM) with Staphylococcus aureus [8]; 0.25 µg/mL (≈ 0.198 µM) in the test with Micrococcus luteus; 4 µg/mL (≈ 3.17 µM) in the test with Bacillus thuringiensis; 2 µg/mL (≈ 1.59 µM) with Enterococcus faecium. In the test with Candida albicans, the MIC is 8 µg/mL (≈ 6.34 µM).

The pIC50 is the negative decadic logarithm of the IC50, by convention in mol/L. Consider `CC(C)[C@H]1C(=O)O[C@H](C)[C@H](NC(=O)c2c3nc4c(C(=O)N[C@@H]5C(=O)N[C@H](C(C)C)C(=O)N6CCC[C@H]6C(=O)N(C)CC(=O)N(C)[C@@H](C(C)C)C(=O)O[C@@H]5C)ccc(Br)c4oc-3c(Br)c(=O)c2N)C(=O)N[C@H](C(C)C)C(=O)N2CCC[C@H]2C(=O)N(C)CC(=O)N1C`, for which the pIC50 was 5.82 in the test with RKO; 5.96 in the test on A549; 7.40 in the test on HL-60; 5.66 with BEAS-2B; 5.82 in the test on MCF7; 4.75 in the test on L02. Besides, the negative logarithm of the IC50 (pIC50) with HeLa was 5.21; in the test with HepG2 it was 5.62. The MIC amounted to 8 µg/mL (≈ 5.78 µM) in the test with Staphylococcus aureus [1]; 8 µg/mL (≈ 5.78 µM) in the test on Staphylococcus aureus [2]; 16 µg/mL (≈ 11.6 µM) with Enterococcus faecalis; 8 µg/mL (≈ 5.78 µM) in the test on Staphylococcus aureus [3]; 8 µg/mL (≈ 5.78 µM) in the test on Staphylococcus aureus [4]; 8 µg/mL (≈ 5.78 µM) in the test with Staphylococcus aureus [5]. Moreover, the minimum inhibitory concentration (MIC) with Staphylococcus aureus [6] is 16 µg/mL (≈ 11.6 µM); with Staphylococcus aureus [7], 16 µg/mL (≈ 11.6 µM); in the test with Staphylococcus aureus [8], 8 µg/mL (≈ 5.78 µM); with Micrococcus luteus, less than 0.06 µg/mL; in the test on Bacillus thuringiensis, 0.25 µg/mL (≈ 0.18 µM); in the test on Enterococcus faecium it was 0.13 µg/mL (≈ 0.0939 µM). Besides, the minimal inhibitory concentration (MIC) in the test with Candida albicans was found to be 16 µg/mL (≈ 11.6 µM).

Regarding `CC1(C)S[C@@H]2[C@H](NC(=O)[C@H](N)c3ccccc3)C(=O)N2[C@H]1C(=O)O` [AMPICILLIN], the MIC in the test with Staphylococcus aureus [1] was 8 µg/mL (≈ 22.9 µM); with Staphylococcus aureus [2], more than 64 µg/mL; with Enterococcus faecalis it was 32 µg/mL (≈ 91.6 µM); with Staphylococcus aureus [3], 2 µg/mL (≈ 5.72 µM); in the test on Staphylococcus aureus [6] it was 8 µg/mL (≈ 22.9 µM); with Staphylococcus aureus [7], 64 µg/mL (≈ 183 µM). The minimal inhibitory concentration (MIC) in the test with Staphylococcus aureus [8] is 1 µg/mL (≈ 2.86 µM); with Micrococcus luteus, 0.13 µg/mL (≈ 0.372 µM); in the test on Bacillus thuringiensis, 2 µg/mL (≈ 5.72 µM); in the test on Enterococcus faecium it was more than 64 µg/mL; in the test on Candida albicans, 0.13 µg/mL (≈ 0.372 µM).

Regarding `CN[C@H](CC(C)C)C(=O)N[C@H]1C(=O)N[C@@H](CC(N)=O)C(=O)N[C@H]2C(=O)N[C@H]3C(=O)N[C@H](C(=O)N[C@H](C(=O)O)c4cc(O)cc(O)c4-c4cc3ccc4O)[C@H](O)c3ccc(c(Cl)c3)Oc3cc2cc(c3O[C@@H]2O[C@H](CO)[C@@H](O)[C@H](O)[C@H]2O[C@H]2C[C@](C)(N)[C@H](O)[C@H](C)O2)Oc2ccc(cc2Cl)[C@H]1O` [VANCOMYCIN], the minimal inhibitory concentration (MIC) with Staphylococcus aureus [2] is 0.25 µg/mL (≈ 0.173 µM); in the test with Enterococcus faecalis it was 1 µg/mL (≈ 0.69 µM); in the test on Staphylococcus aureus [7], 64 µg/mL (≈ 44.2 µM); in the test with Micrococcus luteus, 0.25 µg/mL (≈ 0.173 µM); in the test with Bacillus thuringiensis, 4 µg/mL (≈ 2.76 µM); in the test on Enterococcus faecium, more than 64 µg/mL. For the same compound, the minimum inhibitory concentration (MIC) with Candida albicans came out at 0.25 µg/mL (≈ 0.173 µM).

The record behind these values is ChEMBL document CHEMBL4828714, “Mutasynthesis of Antibacterial Halogenated Actinomycin Analogues” (J Nat Prod, 2021).
